The results in this text go back to publication PMC12123601, “Light-Induced, Lysine-Targeting Irreversible Covalent Inhibition of the Human Oxygen Sensing Hydroxylase Factor Inhibiting HIF (FIH)” (Journal of the American Chemical Society, 2025).

As a reminder, the ΔTm is the change in melting temperature against a reference sample.

One assay concerns the target FIH (Homo sapiens, UniProt Q9NWT6). In words: Time-dependent cellular thermal shift assay (CETSA) in Hep3B cells, FIH. Format: cell-based. More on the design: endogenous in cells; host or cells: Hep3B (SCSP-5045). To be noted: for ΔTm at 50 µM: Hep3B. As to the method:
To investigate potential cellular target engagement of NBA-ZG-2291 with FIH, we performed a time-dependent cellular thermal shift assay (CETSA) using Hep3B cells. The results imply that, after 30 min of light activation (365 nm, 16 W), NBA-ZG-2291 effectively stabilizes FIH with a ΔT m of about 9 °C after incubation for 12–48 h (Figure A), indicating sustained engagement with FIH. […] We also performed Western blotting to examine the protein levels of both HIF-1α and HIF-2α in control and NBA-ZG-2291-treated Hep3B cells.
(§1) 5 NBA-ZG-2991 sustainably engages with FIH and regulates the expression of FIH-dependent HIF target gene EGLN3 in Hep3B cells. (A) The CETSA assay was carried out with Hep3B cells grown in the presence of NBA-ZG-2291 (50 μM) for 12–48 h after 30 min of light activation (365 nm, 16 W). The intensity of the bands for grayscale analysis was referenced to the starting temperature (37 °C). α-Actinin was the sample loading control. n = 2; mean ± SD. […] (E) Correlation heatmap of the NBA-ZG-2291-treated group and the siFIH group by RNA-sequencing analysis. […] The relative fold change with respect to DMSO treated sample is shown (with normalization to HPRT gene levels). Mean ± SEM; n = 3. (G) TG level of NBA-ZG-2291-treated 3T3-L1-derived adipocytes. Mean ± SEM; n = 3. (H) Representative Oil Red O-stained images of the control, ZG-2291-treated, and NBA-ZG-2291-treated 3T3-L1-derived adipocytes. Scale Bar, 30 μm. P values were analyzed by two-way ANOVA comparing with the vehicle/control group (*, P < 0.05; **, P < 0.01; ***, P < 0.001, ****, P < 0.0001). See Methods (Quantitative PCR Analysis of Gene Expression) for assay details. […]
Data acquisition was carried out in Full MS mode, positive ion detection, the acquisition time was 10 min, and the scanning range of the mass-to-charge ratio was 400-2000 m/z.
3.5 Dihedral angle scan analysis
Dihedral angle scans were performed using the Gaussion 16 suite11. The original dihedral angles of the isoxazol-5-yl pyridine fragment were set to 0° via Gaussian View 6.0.16 for dihedral scanning from 0° to 360° in 1° increments at the B3LPY-D3(BJ)/6-31+G(d) level of theory. The resulting 360 conformations and the single-point energy for each conformation were extracted.
3.6 Molecular dynamics (MD) simulations
The process of customizing non-standard residues (NBA-ZG-2291 modified Lys106) in the amber14sb force field involved the following steps: First, the molecular structure of NBA-ZG-2291 was obtained and its topology was generated. […]
The RESP charges were fitted using Multiwfn, wherein the optimized structure and ESP data were inputted to perform the restrained electrostatic potential fitting. The obtained RESP charges were subsequently incorporated into the gaff topology generated by Multwfn. […]

The subject of assay [1] is EGLN3 expression in FIH knockdown Hep3B cells. In words: qRT-PCR of EGLN3 in FIH knockdown (siFIH) Hep3B cells. Format: cell-based. How it is done:
as §1
A general note: In qPCR the cycle at which signal appears reflects the starting amount.

Chain of FIH (Q9NWT6 whole entry): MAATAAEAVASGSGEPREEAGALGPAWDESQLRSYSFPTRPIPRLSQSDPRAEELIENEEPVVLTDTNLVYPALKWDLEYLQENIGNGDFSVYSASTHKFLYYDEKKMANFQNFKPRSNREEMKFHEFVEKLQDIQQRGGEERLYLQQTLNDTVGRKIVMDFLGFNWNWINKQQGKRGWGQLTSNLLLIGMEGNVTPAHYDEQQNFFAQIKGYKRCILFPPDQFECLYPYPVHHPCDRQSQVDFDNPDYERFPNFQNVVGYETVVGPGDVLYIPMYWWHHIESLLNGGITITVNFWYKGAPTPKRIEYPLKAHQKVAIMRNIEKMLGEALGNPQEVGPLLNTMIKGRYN

With `O=C(O)CNC(=O)c1ncc(-c2cc(-c3ccc(CO)c([N+](=O)[O-])c3)no2)cc1O` [NBA-ZG-2291], the ΔTm at 50 µM at FIH (incubation 12 h after 30 min light activation (365 nm, 16 W)) worked out at 8.87 °C; at FIH (incubation 24 h after 30 min light activation (365 nm, 16 W)), 9.28 °C; at FIH (incubation 48 h after 30 min light activation (365 nm, 16 W)) it was 8.86 °C. Further, the “FIH: ΔTm” value on FIH (incubation for 12–48 h after 30 min light activation (365 nm, 16 W)) was “about 9 °C”. Moreover, the “Effect on EGLN3 expression when FIH was knocked down” value in assay [1] is given as “no significant effect on EGLN3 expression”.
